Measured values: patent publication US20170107229A1, “SUBSTITUTED TETRAHYDROPYRIDOTHIENOPYRIMIDINES” (BAYER PHARMA AKTIENGESELLSCHAFT, priority 2014, published 2017)

Target: T1, human full-length MKNK1 (Homo sapiens, UniProt Q9BUB5, T385D)
T1 construct: GST (N); purchased Carna Biosciences 02-145; host or cells: insect cells (baculovirus expression system)
Experiment: MKNK1 kinase high ATP assay (TR-FRET)
Assay type: biochemical
Conditions: high ATP (2 mM final), 15 min preincubation with enzyme, GST-MKNK1 (T344D)
Method: MKNK1-inhibitory activity at high ATP of compounds of the present invention after their preincubation with MKNK1 was quantified employing the TR-FRET-based MKNK1 high ATP assay as described in the following paragraphs.
A recombinant fusion protein of Glutathione-S-Transferase (GST, N-terminally) and human full-length MKNK1 (amino acids 1-424 and T344D of accession number BAA 19885.1), expressed in insect cells using baculovirus expression system and purified via glutathione sepharose affinity chromatography, was purchased from Carna Biosciences (product no 02-145) and used as enzyme. As substrate for the kinase reaction the biotinylated peptide biotin-Ahx-IKKRKLTRRKSLKG (C-terminus in amide form) was used, which can be purchased e.g. from the company Biosyntan (Berlin-Buch, Germany).
For the assay 50 nL of a 100fold concentrated solution of the test compound in DMSO was pipetted into a black low volume 384well microtiter plate (Greiner Bio-One, Frickenhausen, Germany), 2 μL of a solution of MKNK1 in aqueous assay buffer [50 mM HEPES pH 7.5, 5 mM MgCl2, 1.0 mM dithiothreitol, 0.005% (v/v) Nonidet-P40 (Sigma)] was added and the mixture was incubated for 15 min at 22° C. to allow pre-binding of the test compounds to the enzyme before the start of the kinase reaction. Then the kinase reaction was started by the addition of 3 μL of a solution of adenosine-tri-phosphate (ATP, 3.3 mM=>final conc. in the 5 μL assay volume is 2 mM) and substrate (0.1 μM=>final conc. in the 5 μL assay volume is 0.06 μM) in assay buffer and the resulting mixture was incubated for a reaction time of 30 min at 22° C. The concentration of MKNK1 was adjusted depending of the activity of the enzyme lot and was chosen appropriate to have the assay in the linear range, typical concentrations were in the range of 0.003 μg/mL. The reaction was stopped by the addition of 5 μL of a solution of TR-FRET detection reagents (5 nM streptavidine-XL665 [Cisbio Bioassays, Codolet, France] and 1 nM anti-ribosomal protein S6 (pSer236)-antibody from Invitrogen [#44921G] and 1 nM LANCE EU-W1024 labeled ProteinG [Perkin-Elmer, product no. AD0071]) in an aqueous EDTA-solution (100 mM EDTA, 0.1% (w/v) bovine serum albumin in 50 mM HEPES pH 7.5).
The resulting mixture was incubated for 1 h at 22° C. to allow the formation of complex between the phosphorylated biotinylated peptide and the detection reagents. Subsequently the amount of phosphorylated substrate was evaluated by measurement of the resonance energy transfer from the Eu-chelate to the streptavidine-XL. Therefore, the fluorescence emissions at 620 nm and 665 nm after excitation at 350 nm were measured in a TR-FRET reader, e.g. a Rubystar (BMG Labtechnologies, Offenburg, Germany) or a Viewlux (Perkin-Elmer). The ratio of the emissions at 665 nm and at […] was taken as the measure for the amount of phosphorylated substrate. The data were normalised (enzyme reaction without inhibitor=0% inhibition, all other assay components but no enzyme=100% inhibition).

T1 sequence (Q9BUB5 1-424 isoform Q9BUB5-2 T344D): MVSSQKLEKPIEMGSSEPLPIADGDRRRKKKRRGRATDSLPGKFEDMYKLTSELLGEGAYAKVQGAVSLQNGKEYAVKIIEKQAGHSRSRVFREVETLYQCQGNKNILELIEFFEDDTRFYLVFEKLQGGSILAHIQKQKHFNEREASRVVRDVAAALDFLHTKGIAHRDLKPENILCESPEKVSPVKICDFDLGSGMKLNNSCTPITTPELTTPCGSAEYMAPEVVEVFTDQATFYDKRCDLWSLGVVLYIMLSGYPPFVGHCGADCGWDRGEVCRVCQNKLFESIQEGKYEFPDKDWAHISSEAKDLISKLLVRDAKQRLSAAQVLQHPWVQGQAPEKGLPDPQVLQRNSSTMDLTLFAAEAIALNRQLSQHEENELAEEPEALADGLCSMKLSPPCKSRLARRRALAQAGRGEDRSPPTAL

Question: `COc1cc2[nH]ncc2cc1Nc1ncnc2sc3c(c12)CCN(C(=O)CC(F)(F)F)C3` [Example 54, 3,3,3-Trifluoro-1-{4-[(6-methoxy-1H-indazol-5-yl)amino]-5,8-dihydropyrido[4′,3′:4,5]thieno[2,3-d]pyrimidin-7(6H)-yl}propan-1-one] was tested. Which IC50 did it give?
Answer: Its IC50 is 6 nM.

Question: Which IC50 does the source give for `COc1nc2[nH]ncc2cc1Nc1ncnc2sc3c(c12)CCN(C(=O)C(C)C)C3` [Example 55, 1-{4-[(6-Methoxy-1H-pyrazolo[3,4-b]pyridin-5-yl)amino]-5,8-dihydropyrido[4′,3′:4,5]thieno[2,3-d]pyrimidin-7(6H)-yl}-2-methylpropan-1-one] here?
Answer: Its IC50 is 42 nM.

Question: `CC(C)C(=O)N1CCc2c(sc3ncnc(Nc4cc5cn[nH]c5cc4Cl)c23)C1` [Example 56, 1-{4-[(6-Chloro-1H-indazol-5-yl)amino]-5,8-dihydropyrido[4′,3′:4,5]thieno[2,3-d]pyrimidin-7(6H)-yl}-2-methylpropan-1-one] was tested. Which IC50 did it give?
Answer: Its IC50 is 71 nM.

Question: With `C[C@@H]1CN(C(=O)N2CCc3c(sc4ncnc(Nc5ccn6nccc6c5)c34)C2)C[C@H](C)O1` [Example 58, [(2R,6S)-2,6-Dimethylmorpholin-4-yl][4-(pyrazolo[1,5-a]pyridin-5-ylamino)-5,8-dihydropyrido[4′,3′:4,5]thieno[2,3-d]pyrimidin-7(6H)-yl]methanone] as the compound, how does the IC50 read?
Answer: Its IC50 is 61 nM.

Question: With `COc1nc2[nH]ncc2cc1Nc1ncnc2sc3c(c12)CCN(C(=O)OC(C)(C)C)C3` [Example 59, tert-Butyl 4-[(6-methoxy-1H-pyrazolo[3,4-b]pyridin-5-yl)amino]-5,8-dihydropyrido[4′,3′:4,5]thieno[2,3-d]pyrimidine-7(6H)-carboxylate] as the compound, how does the IC50 read?
Answer: The IC50 was 5 nM.

Question: With `c1nc(Nc2cc3cn[nH]c3cn2)c2c3c(sc2n1)CN(CCN1CCOCC1)CC3` [Example 60, 7-[2-(Morpholin-4-yl)ethyl]-N-(1H-pyrazolo[3,4-c]pyridin-5-yl)-5,6,7,8-tetrahydropyrido[4′,3′:4,5]thieno[2,3-d]pyrimidin-4-amine] as the compound, how does the IC50 read?
Answer: Its IC50 is 98 nM.

Question: For `c1nc(Nc2ccc3[nH]ncc3c2)c2c3c(sc2n1)CN(CCN1CCOCC1)CC3` [Example 61, N-(1H-Indazol-5-yl)-7-[2-(morpholin-4-yl)ethyl]-5,6,7,8-tetrahydropyrido[4′,3′:4,5]thieno[2,3-d]pyrimidin-4-amine], which IC50 is on record?
Answer: The IC50 was 25 nM.

Question: With `COc1cc2[nH]ncc2cc1Nc1ncnc2sc3c(c12)CCN(CCN1CCOCC1)C3` [Example 62, N-(6-Methoxy-1H-indazol-5-yl)-7-[2-(morpholin-4-yl)ethyl]-5,6,7,8-tetrahydropyrido[4′,3′:4,5]thieno[2,3-d]pyrimidin-4-amine] as the compound, how does the IC50 read?
Answer: The IC50 was 9 nM.

Question: Which IC50 does the source give for `O=c1[nH]c2ccc(Nc3ncnc4sc5c(c34)CCN(CCN3CCOCC3)C5)cc2s1` [Example 63, 6-({7-[2-(Morpholin-4-yl)ethyl]-5,6,7,8-tetrahydropyrido[4′,3′:4,5]thieno[2,3-d]pyrimidin-4-yl}amino)-1,3-benzothiazol-2(3H)-one] here?
Answer: The IC50 was 236 nM.

Question: With `c1nc(Nc2cnc3[nH]ncc3c2)c2c3c(sc2n1)CN(CCN1CCOCC1)CC3` [Example 64, 7-[2-(Morpholin-4-yl)ethyl]-N-(1H-pyrazolo[3,4-b]pyridin-5-yl)-5,6,7,8-tetrahydropyrido[4′,3′:4,5]thieno[2,3-d]pyrimidin-4-amine] as the compound, how does the IC50 read?
Answer: Its IC50 is 119 nM.

Question: How did the IC50 turn out when `COc1nc2[nH]ncc2cc1Nc1ncnc2sc3c(c12)CCN(C(=O)N(C)C)C3` [Example 65, 4-[(6-Methoxy-1H-pyrazolo[3,4-b]pyridin-5-yl)amino]-N,N-dimethyl-5,8-dihydropyrido[4′,3′:4,5]thieno[2,3-d]pyrimidine-7(6H)-carboxamide] was run?
Answer: Its IC50 is 5 nM.

Question: `CN1CCC(C(=O)N2CCc3c(sc4ncnc(Nc5ccc6[nH]c(=O)sc6c5)c34)C2)CC1` [Example 66, 6-({7-[(1-Methylpiperidin-4-yl)carbonyl]-5,6,7,8-tetrahydropyrido[4′,3′:4,5]thieno[2,3-d]pyrimidin-4-yl}amino)-1,3-benzothiazol-2(3H)-one] was tested. Which IC50 did it give?
Answer: The IC50 was 90 nM.

Question: For `CN1CCC(C(=O)N2CCc3c(sc4ncnc(Nc5cnc6[nH]ncc6c5)c34)C2)CC1` [Example 67, (1-Methylpiperidin-4-yl)[4-(1H-pyrazolo[3,4-b]pyridin-5-ylamino)-5,8-dihydropyrido[4′,3′:4,5]thieno[2,3-d]pyrimidin-7(6H)-yl]methanone], which IC50 is on record?
Answer: Its IC50 is 53 nM.

Question: Which IC50 does the source give for `COc1cc2[nH]ncc2cc1Nc1ncnc2sc3c(c12)CCN(C(=O)C1CCN(C)CC1)C3` [Example 68, {4-[(6-Methoxy-1H-indazol-5-yl)amino]-5,8-dihydropyrido[4′,3′:4,5]thieno[2,3-d]pyrimidin-7(6H)-yl}(1-methylpiperidin-4-yl)methanone] here?
Answer: Its IC50 is 9 nM.

Question: With `CN1CCC(C(=O)N2CCc3c(sc4ncnc(Nc5ccc6[nH]ncc6c5)c34)C2)CC1` [Example 69, [4-(1H-Indazol-5-ylamino)-5,8-dihydropyrido[4′,3′:4,5]thieno[2,3-d]pyrimidin-7(6H)-yl](1-methylpiperidin-4-yl)methanone] as the compound, how does the IC50 read?
Answer: The IC50 was 16 nM.

Question: `COc1cc2[nH]ncc2cc1Nc1ncnc2sc3c(c12)CCN(C(=O)N1CCCCC1)C3` [Example 70, {4-[(6-Methoxy-1H-indazol-5-yl)amino]-5,8-dihydropyrido[4′,3′:4,5]thieno[2,3-d]pyrimidin-7(6H)-yl}(piperidin-1-yl)methanone] was tested. Which IC50 did it give?
Answer: The IC50 was 19 nM.

Question: `COc1cc2[nH]ncc2cc1Nc1ncnc2sc3c(c12)CCN(CCC(=O)N(C)C)C3` [Example 71, 3-{4-[(6-Methoxy-1H-indazol-5-yl)amino]-5,8-dihydropyrido[4′,3′:4,5]thieno[2,3-d]pyrimidin-7(6H)-yl}-N,N-dimethylpropanamide] was tested. Which IC50 did it give?
Answer: Its IC50 is 19 nM.

Question: With `COc1cc2[nH]ncc2cc1Nc1ncnc2sc3c(c12)CCN(C(=O)N1CCCC1)C3` [Example 72, {4-[(6-Methoxy-1H-indazol-5-yl)amino]-5,8-dihydropyrido[4′,3′:4,5]thieno[2,3-d]pyrimidin-7(6H)-yl}(pyrrolidin-1-yl)methanone] as the compound, how does the IC50 read?
Answer: The IC50 was 10 nM.

Question: For `COc1cc2[nH]ncc2cc1Nc1ncnc2sc3c(c12)CCN(C(=O)c1cccn1C)C3` [Example 73, {4-[(6-Methoxy-1H-indazol-5-yl)amino]-5,8-dihydropyrido[4′,3′:4,5]thieno[2,3-d]pyrimidin-7(6H)-yl}(1-methyl-1H-pyrrol-2-yl)methanone], which IC50 is on record?
Answer: The IC50 was 7 nM.

Question: With `CSc1cc2[nH]ncc2cc1Nc1ncnc2sc3c(c12)CCN(C(=O)C1CCN(C)CC1)C3` [Example 74, (1-Methylpiperidin-4-yl)[4-{[6-(methylsulfanyl)-1H-indazol-5-yl]amino}-5,8-dihydropyrido[4′,3′:4,5]thieno[2,3-d]pyrimidin-7(6H)-yl]methanone] as the compound, how does the IC50 read?
Answer: Its IC50 is 4 nM.

Question: For `COc1cc2[nH]ncc2cc1Nc1ncnc2sc3c(c12)CCN(C(=O)c1cnc[nH]1)C3` [Example 75, 1H-Imidazol-5-yl{4-[(6-methoxy-1H-indazol-5-yl)amino]-5,8-dihydropyrido[4′,3′:4,5]thieno[2,3-d]pyrimidin-7(6H)-yl}methanone], which IC50 is on record?
Answer: The IC50 was 6 nM.

Question: How did the IC50 turn out when `COc1cc2[nH]ncc2cc1Nc1ncnc2sc3c(c12)CCN(C(=O)c1ccc(Cl)n1C)C3` [Example 76, (5-Chloro-1-methyl-1H-pyrrol-2-yl){4-[(6-methoxy-1H-indazol-5-yl)amino]-5,8-dihydropyrido[4′,3′:4,5]thieno[2,3-d]pyrimidin-7(6H)-yl}methanone] was run?
Answer: The IC50 was 10 nM.

Question: With `CN1CCC(C(=O)N2CCc3c(sc4ncnc(Nc5cc6cn[nH]c6cn5)c34)C2)CC1` [Example 77, (1-Methylpiperidin-4-yl)[4-(1H-pyrazolo[3,4-c]pyridin-5-ylamino)-5,8-dihydropyrido[4′,3′:4,5]thieno[2,3-d]pyrimidin-7(6H)-yl]methanone] as the compound, how does the IC50 read?
Answer: The IC50 was 28 nM.

Question: For `CCOCCN(C)C(=O)N1CCc2c(sc3ncnc(Nc4cc5cn[nH]c5cc4OC)c23)C1` [Example 78, N-(2-Ethoxyethyl)-4-[(6-methoxy-1H-indazol-5-yl)amino]-N-methyl-5,8-dihydropyrido[4′,3′:4,5]thieno[2,3-d]pyrimidine-7(6H)-carboxamide], which IC50 is on record?
Answer: The IC50 was 1020 nM.
